Consider three molecules from US20150071967A1, “Tolerisation-Inducing Composition” (University of Bristol, priority 2012, published 2015).

The test system of one assay is naive CD4+ T cells. Description: IL-10 in naive CD4+ T cells cultured with GSK-3 inhibitors (ICCS, bead immunoassay). Format: cell-based, mouse. The note with it: for IL-10 production: naive CD4+CD62L+ T-cells from Tg4 spleens, cultured in the presence of GSK3 inhibitors; for Intracellular IL-10 levels: naive Tg4 CD4+ cells, anti CD3/anti CD28 Dynabeads, 2 μM CHIR99021 or 3 μM SB216763, ICCS day 7. The procedure:
A. CD4^+/CD62L^+ T cells were isolated from Tg4 splenocytes and cultured with anti-CD3/anti-CD28 coated beads in the presence of IL-2 and DMSO (1:1000; Control), CHIR99021 (2 μM), SB216763 (5 μM) or SB627772 (10 μM). Intracellular cytokine staining for […] and IL-10 was carried out on day 7 of restimulation after PMA and lonomycin stimulation. Data are plots gated on live CD4^+ cells and are representative of 3 independent experiments.
B. Tissue culture supernatants were taken on day 3 of restimulation and analysed for IL-10 by fluorescent bead immunoassay. Data are mean+/−SEM of 3 independent experiments.
CD4+ cells purified from a naive Tg4 spleen were cultured in the presence of 2 μM CHIR99021, 3 μM SB216763 or 0.02% DMSO (vehicle control) with anti CD3/anti CD28 Dynabeads. Cells were analysed by ICCS on Day 7 after stimulation.
(§1) In a separate experiment, CD4+ cells from Tg4 mice which express TCR specific for the peptide Ac[1-9] of MBP were polarised to a Th1 phenotype and then cultured in the presence of GSK3 inhibitors. Three structurally distinct inhibitors, CHIR99021, SB216763 and SB627772 were used to minimise effects of off-target inhibition.

Assay [1] deals with Th1 cells. The assay can be described thus: IL-10 protein in Th1-polarised CD4+ cells restimulated with GSK-3 inhibitors (ICCS, bead immunoassay). Format: cell-based, mouse. The note with it: for IL-10 protein: Th1 CD4+ cells restimulated with APCs and peptide or with anti-CD3/anti-CD28 coated beads; for Intracellular IL-10 levels: Th1 cells restimulated with anti CD3/anti CD28 Dynabeads, 2 μM CHIR99021 or 3 μM SB216763, ICCS day 7. Here is the method:
A. Splenocytes from a naive Tg4 mouse were cultured in the presence of peptide MBP Ac1-9 (10 μg/ml) and IL-12 with IL-2 added on day 3 of culture to polarise CD4+ cells towards a Th1 phenotype. On day 7 of culture, Th1 cells were restimulated with fresh irradiated APCs from a B10_PL mouse in the presence of DMSO (1:1000; Control), CHIR99021 (2 μM), SB216763 (5 μM) or SB627772 (10 μM) as well as peptide MBP Ac1-9 (10 μg/ml). IL-2 was added on day 3 of culture and intracellular cytokine staining for IFNγ and IL-10 carried out on day 7 of restimulation after PMA and lonomycin stimulation. Data are plots gated on live CD4^+ cells and are representative of 5 independent experiments.
C. Splenocytes from a naive Tg4 mouse were cultured in the presence of peptide MBP Ac1-9 (10 μg/ml) and IL-12 with IL-2 added on day 3 of culture to polarise CD4+ cells towards a Th1 phenotype. On day 7 of culture, Th1 CD4+ cells were isolated and restimulated with anti-CD3/anti-CD28 coated beads in the presence of IL-2 and DMSO (1:1000; Control), CHIR99021 (2 μM), SB216763 (5 μM) or SB627772 (10 μM). Intracellular cytokine staining for IFNγ and IL-10 was carried out on day 7 of restimulation after PMA and lonomycin stimulation. Data are plots gated on live CD4^+ cells and are representative of 4 independent experiments.
E. Tissue culture supernatants were taken on day 3 of restimulation and analysed for IL-10 by fluorescent bead immunoassay. Data are mean+/−SEM and are representative of 3 independent experiments.
Splenocytes from a naive Tg4 mouse were cultured in the presence of peptide MBP Ac1-9 (10 μg/ml) and IL12 with IL2 added on day 3 to polarise cells to a Th1 phenotype. On day 7, cells were restimulated with anti CD3/anti CD28 Dynabeads and 2 μM CHIR99021, 3 μM SB216763 or 0.02% DMSO (vehicle control). Cells were analysed by ICCS on Day 7 after stimulation. Intracellular IL-10 levels were increased following treatment with either GSK-3 inhibitor (CHIR99021 or SB216763).
as §1

For assay [2], the system named is Th1 cells. The assay can be described thus: IL-10 mRNA by qPCR in Th1 CD4+ cells. Type of assay: cell-based, mouse. The note with it: IL-10 relative to HPRT1. The procedure: F. Splenocytes from a naive Tg4 mouse were cultured in the presence of peptide MBP Ac1-9 (10 μg/ml) and IL-12 with IL-2 added on day 3 of culture to polarise CD4+ cells towards a Th1 phenotype. On day 7 of culture, Th1 cells were restimulated with fresh irradiated APCs from a B10_PL mouse in the presence of DMSO (1:1000; Control), CHIR99021 (2 μM), SB216763 (5 μM) or SB627772 (10 µM) as well as peptide MBP Ac1-9 (10 μg/ml). IL-2 was added on day 3 of culture. On day 7 of restimulation live CD4^+ cells were selected and stimulated with anti CD3/CD28 antibodies for 16 hrs. RNA was extracted and IL-10 mRNA quantified by qPCR. IL-10 quantities are shown relative to HPRT1 control.
as §1
On the technique in general: Quantitative PCR measures a nucleic acid by following its amplification.

The test system of a further assay is APC / Th1 CD4+ cells. Description: IL-10 with APCs from WT or IL-10 knockout mice (ICCS, ELISA). Type of assay: cell-based, mouse. The note with it: 2 μM CHIR99021, APCs from WT or IL10 knockout mice, ICCS and day 3 ELISA. Here is the method:
A. Splenocytes from a naive Tg4 mouse were cultured in the presence of peptide MBP Ac1-9 (10 μg/ml) and IL-12 with IL-2 added on day 3 of culture to polarise CD4+ cells towards a Th1 phenotype. On day 7 of culture, Th1 cells were restimulated with fresh irradiated APCs from either a B10_PL or B10_PL IL10^−/− mouse in the presence of DMSO (1:1000; Control) or CHIR99021 (2 μM). IL-2 was added on day 3 of culture and intracellular cytokine staining for […] and IL-10 carried out on day 7 of restimulation after PMA and lonomycin stimulation. Data are plots gated on live CD4^+ cells and are representative of 3 independent experiments. B. Tissue culture supernatants were taken on day 3 of restimulation and analysed for IL-10 by ELISA. Data are mean+/−SEM and are representative of 3 independent experiments. Splenocytes from a naive Tg4 mouse were cultured in the presence of either: (a) peptide MBP Ac1-9 (10 μg/ml) and IL12 with IL2 added on day 3 to polarise cells to a Th1 phenotype; or (b) IL4 and anti IFNγ with IL2 added on day 3 to polarise cells to a Th2 phenotype. On day 7 CD4+ cells were restimulated with fresh irradiated APCs from either WT or IL10 knockout mice, 2 μM CHIR99021 or 0.02% DMSO (vehicle control) and peptide […] of MBP (10 μg/ml). Supernatants were taken in triplicate on day 3 and analysed for IL-10 by ELISA (FIG. 3 (E)). […]

Assay [3] deals with β-catenin. The assay can be described thus: beta-catenin Western blot in Th1 CD4+ cells. Format: cell-based, mouse. The note with it: for β-catenin accumulation (Western blot): CD4+ cells, 2 μM CHIR99021, 5 μM SB216763, 10 μM SB627772; for β-catenin levels (Western blot): Th1 cells restimulated with APCs and peptide, indicated concentrations, day 7. Here is the method:
G. Splenocytes from a naive Tg4 mouse were cultured in the presence of peptide MBP Ac1-9 (10 μg/ml) and IL-12 with IL-2 added on day 3 to polarise cells to a Th1 phenotype. On day 7 cells were restimulated with fresh irradiated APCs from a B10_PL mouse, peptide Ac1-9 of MBP (10 μg/ml) and the indicated concentrations of CHIR99021, SB216763 or SB627772. On day 7 of restimulation, CD4^+ cells were lysed in RIPA buffer, subjected to Western blotting and probed with beta catenin antibody. The membrane was stripped and reprobed for GAPDH as a loading control.
Splenocytes from a naive Tg4 mouse were cultured in the presence of peptide MBP Ac1-9 (10 μg/ml) and IL12 with IL2 added on day 3 to polarise cells to a Th1 phenotype. On day 7 cells were restimulated with fresh irradiated APCs, peptide Ac1-9 of MBP (10 μg/ml) and the indicated concentrations of SB216763 or CHIR99021. On day 7 of restimulation, cells were lysed in RIPA buffer, subjected to Western blotting and probed with beta catenin antibody. The membrane was stripped and reprobed for GAPDH as a loading control. GSK-3 consititutively phosphorylates the β-catenin protein, leading to its degradation.

Assay [4] deals with β-catenin. The note with it: cited from earlier work.

As to `Cc1c[nH]c(-c2cnc(NCCNc3ccc(C#N)cn3)nc2-c2ccc(Cl)cc2Cl)n1` [CHIR99021], in the assay on naive CD4+ T cells, the IL-10 production result is “did not show any change” and the “Intracellular IL-10 levels” value is reported as “not significantly affected”. In the assay with Th1 cells [1], the IL-10 protein entry is “significantly increased” and the “Intracellular IL-10 levels” value is reported as “increased”. The “IL-10 mRNA (qPCR)” value in the assay with Th1 cells [2] is on record as “upregulation”. Besides, in the assay on APC / Th1 CD4+ cells, the “IL-10 in / produced by the APC” value is listed as “Neither the intracellular level of IL-10 in the APC nor the production of IL-10 by the APC was enhanced”. Further, in the assay with β-catenin [3], the “β-catenin accumulation (Western blot)” value is “no accumulation of β-catenin” and the “β-catenin levels (Western blot)” value is recorded as “degradation of β-catenin appears to be inhibited, leading to build up of the β-catenin protein”.
Turning to `O=C1NC(=O)C(c2ccccc2[N+](=O)[O-])=C1Nc1ccc(O)c(Cl)c1` [SB415286], in the assay with β-catenin [4], the “Level of β-catenin” value is recorded as “elevate the level of 13-catenin”.
As to `Cn1cc(C2=C(c3ccc(Cl)cc3Cl)C(=O)NC2=O)c2ccccc21` [SB216763], in the assay on naive CD4+ T cells, the IL-10 production result was “did not show any change” and the “Intracellular IL-10 levels” value is recorded as “not significantly affected”. For the same molecule, in the assay on Th1 cells [1], the IL-10 protein result is recorded as “significantly increased” and the “Intracellular IL-10 levels” value is given as “increased”. In addition, the “IL-10 mRNA (qPCR)” value in the assay on Th1 cells [2] is reported as “upregulation”. Further, in the assay with β-catenin [3], the “β-catenin accumulation (Western blot)” value is given as “no accumulation of β-catenin” and the “β-catenin levels (Western blot)” value was “does not appear to cause a significant effect on β-catenin levels”.
